Test results from publication PMC2790855, “BU-32: a novel proteasome inhibitor for breast cancer” (2009).

Molecular target: T1, 20S proteasome caspase-like activity (β1-subunit) (Homo sapiens, UniProt P28072)
T1 construct: gene PSMB6; with 20S proteasome
T1 sequence (P28072 35-239): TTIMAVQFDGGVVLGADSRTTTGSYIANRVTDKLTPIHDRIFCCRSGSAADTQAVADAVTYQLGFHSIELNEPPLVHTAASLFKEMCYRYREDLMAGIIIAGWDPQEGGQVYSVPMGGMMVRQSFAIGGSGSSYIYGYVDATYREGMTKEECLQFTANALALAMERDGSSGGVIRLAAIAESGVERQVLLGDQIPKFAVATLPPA
Test: Proteasome-Glo caspase-like assay in MDA-MB-231, MCF7 and SKBR3 cells treated […] h with […]; reference inhibitor
Type: cell-based

CC(C)C[C@H](NC(=O)[C@H](Cc1ccccc1)NC(=O)c1cnccn1)B(O)O [Bortezomib]
Proteasome-Glo caspase-like assay in MDA-MB-231, MCF7 and SKBR3 cells treated 24: analyzed for the inhibition of chymotryptic-like, caspase-like, and tryptic-like intracellular proteasome activities
